According to patent US3991057A, “C-Piperazino-pyridine sulfonamides” (A. Christiaens Societe Anonyme, priority 1970, dated 1976):
Where a name gives a salt, the structure may show the parent alone. Read-outs that look alike come from different tables or passages of the source.

What was measured:
[1] = tested on: carrageenan-induced paw oedema; test: Acute oedema induced by carrageenan (anti-inflammatory test, rat paw swelling by plethysmography); type: in vivo; settings: for inhibition in vivo at 100 mg/kg: Rattus norvegicus, read-out: Acute oedema induced by carrageenan, % of inhibition
Method: The anti-inflammatory properties are determined as follows:
The compounds to be tested are given as freshly prepared solutions or suspensions by oral route one hour before injecting the paw with carrageenan, a known inflammatory agent.
The inflammatory agent either in aqueous solution or suspension is then injected into the plantar tissue of the right hind paw of each rat, the left paw remaining untreated and serving as control. Each animal receives for example 0.05 ml of an aqueous solution containing 1 % of carrageenan and 0.9 % of sodium chloride.
4 hours after injection, the importance of swelling is determined by plethysmography and is expressed as a percent of the volume of the control paw.
The anti-inflammatory effect expressed as a percent of inhibition is obtained by comparison between rats treated with the anti-inflammatory agent and a control group of rats.
100 mg/kg of anti-inflammatory agent are administered by oral route.

[2] = tested on: test animal (left carotid and femoral artery flow, ventricular and aortic pressure); test: Cardiovascular properties (flow rates of carotid and femoral artery, ventricular and aortic pressures) in the test animal; type: in vivo; set-up: ventricular and aortic pressures after moderate lowering: unit not given here; settings: for ventricular and aortic pressures after sharp fall: from 130 mm of Hg
Method: Some compounds of this invention also have interesting cardiovascular properties so that they may be used as cerebral, coronary and peripheral vasodilators and hypotension-inducing agents, whereby the hypotension activity may occur primarily or secondarily with respect to the peripheral vasodilatation.
These cardiovascular properties have been found as follows:
After administration of the compound at the hereafter-indicated doses, the following parameters are measured on the test animal: the electrocardiogram, the left ventricular pressure, the amplified telediastolic pressure, the derivative of the ventricular pressure with respect to time (dp/dt), the aortic pressure, the average and pulsatile blood flow of the left carotid and femoral artery.

[3] = 100 mg/kg oral, one hour before carrageenan, 4 hours after injection

CN1CCN(c2ncccc2C#N)CC1 [Example 14, 2-(4'-methyl-1'-piperazinyl)-3-cyanopyridine hydrochloride]
inhibition in vivo at 100 mg/kg [1, 3]: 63.2%

CN1c2ccccc2Sc2ccc(CC(=O)O)cc21 [Methiazinic acid, reference compound]
inhibition in vivo at 100 mg/kg [1, 3]: 46%

CN1CCN(CCNS(=O)(=O)c2cnccc2N2CCN(C)CC2)CC1 [Example 38, 4-(4'-methyl-1'-piperazinyl)-pyridine-3-(4"-methyl-1"-piperazinyl)-ethylsulfonamide]
Acute oedema induced by carrageenan, % of inhibition [1, 3]: 60.8%
activity on the carotid and femoral flow rates ([2]; 2 mg/kg): slight and breaf
duration of activity on / increase of the carotid and femoral flow rates ([2]; 2 mg/kg): 5 min
duration of action on the carotid and femoral flow rates ([2]; 4 mg/kg and 8 mg/kg): 10 min
increase of the average flow rates (carotid and femoral) ([2]; 4 mg/kg and 8 mg/kg): 100%

CCN(CC)S(=O)(=O)c1cnccc1N1CCN(C)CC1 [Example 32, 4-(4'-methyl-1'-piperazinyl)-pyridine-3-diethylsulfonamide]
inhibition in vivo at 100 mg/kg [1, 3]: 44.8%
time to fall of cardiac and peripheral pressures ([2]; 2 mg/kg): ≤ 45 s
cardiac and peripheral pressures on recovery ([2]; 2 mg/kg, after 5 minutes): 135 mm of Hg
cardiac and peripheral pressures after fall ([2]; 2 mg/kg, from 150 mm of Hg): 75 mm of Hg
increase of the carotid flow rate ([2]; 2 mg/kg, maximum where stated): 60%
duration of hypotension / fall of pressure ([2]; 4 mg/kg): more than 20 min
time to return of pressures to the starting values ([2]; 4 mg/kg): > 70 min
pressure on return to the starting values ([2]; 4 mg/kg, after 70 minutes): 130 mm of Hg
pressure in moderate hypotension ([2]; 4 mg/kg, from 135 mm of Hg): 75 mm of Hg

CCCCC1C(=O)N(c2ccccc2)N(c2ccccc2)C1=O [Phenylbutazone, reference compound]
inhibition in vivo at 100 mg/kg [1, 3]: 41%

O=C(O)c1cccnc1Nc1cccc(C(F)(F)F)c1 [Niflumic acid, reference compound]
inhibition in vivo at 100 mg/kg [1, 3]: 32%

CN1CCN(c2ccc(C#N)cn2)CC1 [Example 23, 2-(4'-methyl-1'-piperazinyl)-5-cyanopyridine]
inhibition in vivo at 100 mg/kg [1, 3]: 48.8%

CNC(=O)c1cccnc1N1CCN(C)CC1 [Example 19, 2-(4'-methyl-1'-piperazinyl)-pyridine-3-methylcarboxamide]
inhibition in vivo at 100 mg/kg [1, 3]: 51.2%

CN(C)C=NS(=O)(=O)c1cnccc1N1CCN(C)CC1 [Example 48, 4-(4'-methyl-1'-piperazinyl)-pyridine-3-dimethylaminomethinesulfonamide]
duration of activity on / increase of the carotid and femoral flow rates ([2]; 2 mg/kg): 5 min
increase of the carotid and femoral flow rates ([2]; 2 mg/kg): 100%
duration of increase of the carotid and femoral flow rates ([2]; 4 mg/kg): 10 min
fall of the ventricular and aortic pressures ([2]; 4 mg/kg): temporary and moderate fall
increase of the carotid and femoral flow rates ([2]; 4 mg/kg, compared with 2 mg/kg): stronger and longer
phenomena (flow rates and pressures) compared with 4 mg/kg ([2]; 8 mg/kg): Identical phenomena are observed

CN1CCN(c2ccc(C(=O)N(C)C)cn2)CC1 [Example 25, 2-(4'-methyl-1'-piperazinyl)-5-dimethylcarboxamide]
inhibition in vivo at 100 mg/kg [1, 3]: 28.8%

CC(C)NC(=O)c1ccc(N2CCN(C)CC2)nc1 [Example 27, 2-(4'-methyl-1'-piperazinyl)-5-isopropylcarboxamide]
inhibition in vivo at 100 mg/kg [1, 3]: 32%

O=C(O)c1ccccc1Nc1cccc(C(F)(F)F)c1 [Flufenamic acid, reference compound]
inhibition in vivo at 100 mg/kg [1, 3]: 34%

CNS(=O)(=O)c1cnccc1N1CCN(C)CC1 [Example 29, 4-(4'-methyl-1'-piperazinyl)-pyridine-3-methylsulfonamide]
duration of increase of the femoral flow rate ([2]; 2 mg/kg): less than 5 min
increase of the femoral flow rate ([2]; 2 mg/kg, maximum): 80%
duration of increase of the carotid and femoral flow rates ([2]; 4 mg/kg): 10 min
modification of the pressures ([2]; 4 mg/kg): slight reflex modification of the pressures
increase of the carotid flow rate ([2]; 4 mg/kg, maximum where stated): 120%
increase of the femoral flow rate ([2]; 4 mg/kg, maximum where stated): 80%
increase of the carotid flow rate ([2]; 10 mg/kg): 300%
phenomena (flow rates and pressures) compared with 4 mg/kg ([2]; 10 mg/kg): identical phenomena occur which are however stronger and of longer duration

CN1CCN(c2ccncc2S(N)(=O)=O)CC1 [Example 28, 4-(4'-methyl-1'-piperazinyl)-pyridine-3-sulfonamide]
duration of activity on / increase of the carotid and femoral flow rates ([2]; 2 mg/kg): more than 5 min
time to return of ventricular and aortic pressures to the starting values / reversal of lowering ([2]; 2 mg/kg): ≤ 2 min
ventricular and aortic pressures after moderate lowering ([2]; 2 mg/kg, from 160 mm of Hg): 100
increase of the femoral flow rate ([2]; 2 mg/kg, maximum): 100%
increase of the carotid flow rate ([2]; 2 mg/kg, maximum where stated): 150%
phenomena (flow rates and pressures) compared with 2 mg/kg ([2]; 4 mg/kg): The same phenomena occur
time to return of pressures to the starting values ([2]; 4 mg/kg): 40 min
ventricular and aortic pressures after lowering ([2]; 4 mg/kg, from 160 mm of Hg): 70 mm of Hg
phenomena (flow rates and pressures) compared with 4 mg/kg ([2]; 8 mg/kg): identical phenomena are observed
time to return of pressures to their starting value ([2]; 8 mg/kg): 50 min

CCN(CC)S(=O)(=O)c1cccnc1N1CCN(C)CC1 [Example 5, 2-(4'-methyl-1'-piperazinyl)-pyridine-3-diethylsulfonamide dihydrochloride]
inhibition in vivo at 100 mg/kg [1, 3]: 44%

CCOCCNS(=O)(=O)c1cnccc1N1CCN(C)CC1 [Example 40, 4-(4'-methyl-1'-piperazinyl)-pyridine-3-ethoxyethylsulfonamide]
inhibition in vivo at 100 mg/kg [1, 3]: 60%
duration of activity on / increase of the carotid and femoral flow rates ([2]; 2 mg/kg): less than 5 min
variation of the cardiac and peripheral pressures ([2]; 2 mg/kg): without variation
increase of the femoral flow rate ([2]; 2 mg/kg, maximum): 50%
increase of the carotid flow rate ([2]; 2 mg/kg, maximum where stated): 300%
duration of hypotension / fall of pressure ([2]; 4 mg/kg): 3 min
increase of the carotid flow rate ([2]; 4 mg/kg): moderate increase of the carotid flow rate remains after return of the pressure rates to normal conditions
return of blood pressure to the starting values ([2]; 4 mg/kg): quick return to the starting values
blood pressure after moderate fall ([2]; 4 mg/kg, from 150 mm of Hg): 90 mm of Hg

CC(=O)Oc1ccccc1C(=O)O [Acetosalicylic acid, reference compound]
inhibition in vivo at 100 mg/kg ([1]; po, 4 h): 0%

CC(C)NS(=O)(=O)c1cnccc1N1CCN(C)CC1 [Example 33, 4-(4'-methyl-1'-piperazinyl)-pyridine-3-isopropylsulfonamide]
duration of increase of the average carotid flow rate ([2]; 2 mg/kg): 5 min
increase of the average carotid flow rate ([2]; 2 mg/kg): slight increase
time the carotid flow rate remains high compared to control values ([2]; 4 mg/kg): 10 min
time to increase of the carotid flow rate ([2]; 4 mg/kg): within two minutes
time to fall of femoral flow rate to the starting values ([2]; 4 mg/kg, after injection): ≤ 2 min
increase of the carotid flow rate ([2]; 4 mg/kg, maximum where stated): 300%
increase of the femoral flow rate ([2]; 4 mg/kg, maximum where stated): 200%

COCCNS(=O)(=O)c1cnccc1N1CCN(C)CC1 [Example 39, 4-(4'-methyl-1'-piperazinyl)-pyridine-3-methyoxyethylsulfonamide]
inhibition in vivo at 100 mg/kg [1, 3]: 55.2%
time to return of ventricular and aortic pressures to the starting values / reversal of lowering ([2]; 2 mg/kg): less than 3 min
ventricular and aortic pressures after sharp fall ([2]; 2 mg/kg): 90 mm of Hg
increase of the carotid flow rate ([2]; 2 mg/kg, maximum where stated): 75%
duration of hypotension / fall of pressure ([2]; 4 mg/kg): 2 min
increase of the peripheral flow rates ([2]; 4 mg/kg): 50%
time to return of pressures to the starting values ([2]; 4 mg/kg): 30 min
ventricular and aortic pressures after sharp fall ([2]; 4 mg/kg): 40 mm of Hg

CCNC(=O)c1cccnc1N1CCN(C)CC1 [Example 21, 2-(4'-methyl-1'-piperazinyl)-pyridine-3-ethylcarboxamide]
inhibition in vivo at 100 mg/kg [1, 3]: 44.4%

CCNS(=O)(=O)c1cccnc1N1CCN(C)CC1 [Example 4, 2-(4'-methyl-1'-piperazinyl)-pyridine-3-ethylsulfonamide]
inhibition in vivo at 100 mg/kg [1, 3]: 50%

CCNS(=O)(=O)c1ccc(N2CCN(C)CC2)nc1 [Example 11, 2-(4'-methyl-1'-piperazinyl)-pyridine-5-ethylsulfonamide]
inhibition in vivo at 100 mg/kg [1, 3]: 42.4%

CC(C)NC(=O)c1cccnc1N1CCN(C)CC1 [Example 22, 2-(4'-methyl-1'-piperazinyl)-pyridine-3-isopropylcarboxamide]
inhibition in vivo at 100 mg/kg [1, 3]: 40%
